Experimental data published in article PMC8536644, “Enigmatic mechanism of the N-vinylpyrrolidone hepatocarcinogenicity in the rat” (Archives of Toxicology, 2021).

What was measured:
rat liver cells = test: Trypan Blue viability of the single cell suspension, liver; format: in vivo; conditions: liver, male, no FPG; 10 ppm inhalation, 5 days; individual animals
Experimental: The organ parts (see above) were washed in mincing buffer (50 mM EDTA in HBSS [without Ca^2+ and Mg^2+] pH 7.5: DMSO 9:1 (v/v), the latter added shortly before use, stored at 4 °C), cut into 1 to 2-mm pieces in ice-cold mincing buffer and transferred to a cell sieve with 70-µm pores. The viability of the cell suspension was evaluated by the Trypan Blue Assay (Strober [2001]).

[1] = test system: polychromatic erythrocytes of rat bone marrow; test: Micronucleus test in rat bone marrow (OECD 474); conditions: for MN/ 1000 PCE Mean ± SD / MN/ 1000 PCE Range / PCE/1000 Erythrozyten Mean ± SD / PCE/NCE quotient (%): 5 days
Experimental: 13-mm filter disks with a pore size of 8 µm were placed on the bottom of 5-mL plastic syringes. Approximately 500 mg of a mixture consisting of equal parts microcrystalline cellulose (Sigmacell®, Typ 50) and alpha-cellulose fibers was added up to the 2-mL mark.
Bone marrow preparation was performed according to published methods (Romagna and Staniforth [1989]; Salamone et al. [1980]). The soft tissue was removed from the femora and the epiphyses were cut off. The bone marrow was rinsed off the diaphyses with approximately 3 mL 37 °C-warm fetal calf serum (FCS) (Biochrom, Berlin, Germany) per femur, placed on the above-described cellulose column and eluted with 3 mL of Hank's Balanced Salt Solution (HBSS) (Biochrom, Berlin, Germany) (with Ca^2+ und Mg^2+). The eluate was centrifuged at 300 g for 5 min and the pellet was suspended in […] FCS. From this suspension three portions per femur were individually placed on slides, air-dried and then stained for 4 min in May-Grunwald solution 1 (Merck, Darmstadt, Germany), followed by 4 min in May–Grunwald solution 2 (May-Grunwald solution 1 diluted 1:1 with aqua bidest.), rinsed in aqua bidest and then stained with Giemsa solution (7.5% dilution derived from Giemsa obtained from Merck, Darmstadt, Germany) for 15 min. Subsequently, the slides were washed twice with aqua bidest, then dried, cleared in xylene and covered with Corbit-Balsam (I. Hecht, Kiel-Hasse, Germany).
2000 polychromatic erythrocytes (PCE) per animal (1000 per slide) were evaluated at 1000-fold magnification under immersion oil for the presence/absence of large and small micronuclei as well as the proportion of PCE among the total erythrocytes. Statistical significance of differences between treated versus untreated groups was evaluated by the one-sided Wilcoxon test (using the program MUKERN). The result is regarded as positive when the following criteria are fulfilled: 1.
2000 PCEs were analyzed for micronuclei per animal.

CYP2B = test: PROD inhibition control in Aroclor 1254-induced rat liver microsomes; format: biochemical; conditions: for PROD enzyme activity: 0 µM control 78.9 ± 3.2
Experimental: For determination of the enzyme activities in triplicates, 85 µL master mix (100 mM TrisHCl pH 7.5, 2 mM 5’AMP, 5 mM G-6-P, 10 U G-6-P-DH, 10 mM Dicumarol, 10 mM MgCl2, either 2 µM EROD or 10 µM PROD or 5 µM BROD) was added to 10 µL microsomal fraction (1 mg protein/mL). The reaction was started by the addition of 5 µL 2 mM NADPH (dissolved in 100 mM TrisHCl pH 7.5) followed by incubation at 37 °C for 16 min. The activity was determined by measuring the increase of the fluorescence (excitation at 550 nm, emission at 585 nm) due to resorufin formation compared with resorufin standards, which had been prepared by dissolving tenfold concentrated solutions in DMSO, which were then diluted tenfold in 100 mM TrisHCl pH 7.5.
As a method control the described AROD assay was performed with microsomal fractions derived from liver and lung of male Wistar rats which had been treated i.p. for 5 days with aroclor 1254 (500 mg/kg bw). These control assays were performed in presence of 1 μM, 10 μM or 100 μM NVP, respectively, in order to check for potential interactions of NVP with the substrate turnover in the AROD assay.

Salmonella strains = conditions: three independent tests in four Salmonella strains; ref MAK [1994]; cited from earlier work

C=CN1CCCC1=O [NVP, N-vinylpyrrolidone]
Individual viability (%) (rat liver cells): 94% | Mean number of micronuclei in PCE, range over groups ([1]; 5, 10, 20 ppm, male and female rats): 1.4 to 2.9 ‰ | MN/ 1000 PCE Mean ± SD ([1]; 5 ppm inhalation, female): 1.4 ± 0.7 MN/ 1000 PCE | MN/ 1000 PCE Range ([1]; 5 ppm inhalation, female): 0.5–2.5 MN/ 1000 PCE | PCE/1000 Erythrozyten Mean ± SD ([1]; 5 ppm inhalation, female): 629 ± 18 PCE/1000 Erythrozyten | PCE/NCE quotient (%) ([1]; 5 ppm inhalation, female): 99% | MN/ 1000 PCE Mean ± SD ([1]; 5 ppm inhalation, male): 2.6 ± 0.9 MN/ 1000 PCE | MN/ 1000 PCE Range ([1]; 5 ppm inhalation, male): 1.5–4.0 MN/ 1000 PCE | PCE/1000 Erythrozyten Mean ± SD ([1]; 5 ppm inhalation, male): 609 ± 40 PCE/1000 Erythrozyten | PCE/NCE quotient (%) ([1]; 5 ppm inhalation, male): 100% | Increase in micronuclei in the PCE ([1]; 5 ppm, 10 ppm or 20 ppm): no significant increase | MN/ 1000 PCE Mean ± SD ([1]; 10 ppm inhalation, female): 1.7 ± 1.0 MN/ 1000 PCE | MN/ 1000 PCE Range ([1]; 10 ppm inhalation, female): 0.5–3.0 MN/ 1000 PCE | PCE/1000 Erythrozyten Mean ± SD ([1]; 10 ppm inhalation, female): 612 ± 44 PCE/1000 Erythrozyten | PCE/NCE quotient (%) ([1]; 10 ppm inhalation, female): 96% | MN/ 1000 PCE Mean ± SD ([1]; 10 ppm inhalation, male): 2.9 ± 1.9 MN/ 1000 PCE | MN/ 1000 PCE Range ([1]; 10 ppm inhalation, male): 1.5–6.5 MN/ 1000 PCE | PCE/1000 Erythrozyten Mean ± SD ([1]; 10 ppm inhalation, male): 622 ± 33 PCE/1000 Erythrozyten | PCE/NCE quotient (%) ([1]; 10 ppm inhalation, male): 102% | MN/ 1000 PCE Mean ± SD ([1]; 20 ppm inhalation, female): 2.3 ± 0.8 MN/ 1000 PCE | MN/ 1000 PCE Range ([1]; 20 ppm inhalation, female): 1.0–3.0 MN/ 1000 PCE | PCE/1000 Erythrozyten Mean ± SD ([1]; 20 ppm inhalation, female): 615 ± 48 PCE/1000 Erythrozyten | PCE/NCE quotient (%) ([1]; 20 ppm inhalation, female): 97% | MN/ 1000 PCE Mean ± SD ([1]; 20 ppm inhalation, male): 2.0 ± 0.9 MN/ 1000 PCE | MN/ 1000 PCE Range ([1]; 20 ppm inhalation, male): 0.5–3.0 MN/ 1000 PCE | PCE/1000 Erythrozyten Mean ± SD ([1]; 20 ppm inhalation, male): 553 ± 57 PCE/1000 Erythrozyten | PCE/NCE quotient (%) ([1]; 20 ppm inhalation, male): 90% | Micronuclei in normochromatic erythrocytes (NCE) ([1]; after exposure to NVP): no micronuclei were observed | Decrease of the ratio of PCE to NCE ([1]; high-dose (20 ppm) males vs vehicle control): 10% | PROD enzyme activity (CYP2B; 1 µM NVP): 88.6 ± 3.3 pmol/min/mg protein | PROD enzyme activity (CYP2B; 10 µM NVP): 92.1 ± 6.0 pmol/min/mg protein | PROD enzyme activity (CYP2B; 100 µM NVP): 94.6 ± 2.3 pmol/min/mg protein | Inhibition of PROD activity (CYP2B; 1, 10 or 100 µM NVP): does not lead to inhibition | Ames Salmonella back mutation test result (Salmonella strains): negative
